In ChEMBL document CHEMBL6087472, “Development and Discovery of a Selective Degrader of Casein Kinases 1 δ/ε” (J Med Chem, 2025):
Calls of active or inactive are those of the source. No cut-off for these calls is given here.

Key:
[1] = molecular target: T1, Protein cereblon/Casein kinase I isoform delta (Homo sapiens, UniProt P48730+Q96SW2); experiment: PROTAC activity at CRBN/full length N-terminal Nano-luc fused CK1 delta (unknown origin) transfected in HEK293T cells incubated for 2 hrs followed by substrate addition by NanoBRET target engagement assay; format: cell-based
Target sequence in this assay (P48730 whole entry, the tested form may be a part, canonical isoform): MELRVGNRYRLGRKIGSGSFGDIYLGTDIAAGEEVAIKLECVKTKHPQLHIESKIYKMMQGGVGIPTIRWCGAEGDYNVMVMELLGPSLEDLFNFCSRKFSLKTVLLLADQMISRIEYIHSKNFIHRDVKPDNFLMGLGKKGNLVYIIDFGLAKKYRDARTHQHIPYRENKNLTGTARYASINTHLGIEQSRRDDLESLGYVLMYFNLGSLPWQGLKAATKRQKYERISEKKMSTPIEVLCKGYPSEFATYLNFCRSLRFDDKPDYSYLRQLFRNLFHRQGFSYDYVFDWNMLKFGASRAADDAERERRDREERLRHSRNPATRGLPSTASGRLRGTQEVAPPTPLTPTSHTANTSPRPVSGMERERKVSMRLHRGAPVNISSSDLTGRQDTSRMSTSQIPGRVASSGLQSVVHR
Target sequence in this assay (Q96SW2 whole entry, the tested form may be a part, canonical isoform): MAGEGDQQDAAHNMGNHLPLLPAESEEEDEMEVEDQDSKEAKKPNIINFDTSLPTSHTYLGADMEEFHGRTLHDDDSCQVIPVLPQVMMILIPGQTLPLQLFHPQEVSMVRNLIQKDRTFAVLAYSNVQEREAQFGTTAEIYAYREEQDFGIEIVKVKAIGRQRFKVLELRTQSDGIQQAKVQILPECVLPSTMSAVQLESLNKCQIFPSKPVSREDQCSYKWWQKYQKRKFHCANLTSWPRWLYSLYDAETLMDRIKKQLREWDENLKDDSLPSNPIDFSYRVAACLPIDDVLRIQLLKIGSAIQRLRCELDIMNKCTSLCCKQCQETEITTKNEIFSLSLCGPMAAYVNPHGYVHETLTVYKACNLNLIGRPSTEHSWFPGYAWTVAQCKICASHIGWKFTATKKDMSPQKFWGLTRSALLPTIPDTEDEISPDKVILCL

[2] = molecular target: T1, Protein cereblon/Casein kinase I isoform delta; experiment: PROTAC activity at CRBN/Hibit-fused CK1 delta in human MV4-11 cells assessed as degradation of CK1-delta incubated for 6 hrs by Nano-Glo HiBiT assay relative to control; format: cell-based
Target sequence in this assay (P48730 whole entry, looked up, the tested form may be a part, canonical isoform): as the sequence (P48730 whole entry, the tested form may be a part, canonical isoform) above
Target sequence in this assay (Q96SW2 whole entry, looked up, the tested form may be a part, canonical isoform): as the sequence (Q96SW2 whole entry, the tested form may be a part, canonical isoform) above

[3] = molecular target: Cereblon/Casein kinase I alpha (Homo sapiens) (UniProt P48729+Q96SW2); experiment: PROTAC activity at CRBN/Hibit-fused CK1 alpha in human MV4-11 cells assessed as degradation of CK1-alpha incubated for 6 hrs by Nano-Glo HiBiT assay relative to control; format: cell-based
[4] = molecular target: T1, Protein cereblon/Casein kinase I isoform delta; experiment: PROTAC activity at CRBN/Hibit-fused CK1 delta in human MV4-11 cells assessed as degradation of CK1-delta at 10 nM incubated for 6 hrs by Nano-Glo HiBiT assay; format: cell-based
Target sequence in this assay (P48730 whole entry, looked up, the tested form may be a part, canonical isoform): as the sequence (P48730 whole entry, the tested form may be a part, canonical isoform) above
Target sequence in this assay (Q96SW2 whole entry, looked up, the tested form may be a part, canonical isoform): as the sequence (Q96SW2 whole entry, the tested form may be a part, canonical isoform) above

[5] = molecular target: T2, von Hippel-Lindau disease tumor suppressor/Casein kinase I isoform delta (Homo sapiens, UniProt P48730+P40337); experiment: PROTAC activity at VHL/full length N-terminal Nano-luc fused CK1 delta (unknown origin) transfected in HEK293T cells incubated for 2 hrs followed by substrate addition by NanoBRET target engagement assay; format: cell-based
Target sequence in this assay (P40337 whole entry, looked up, the tested form may be a part, canonical isoform): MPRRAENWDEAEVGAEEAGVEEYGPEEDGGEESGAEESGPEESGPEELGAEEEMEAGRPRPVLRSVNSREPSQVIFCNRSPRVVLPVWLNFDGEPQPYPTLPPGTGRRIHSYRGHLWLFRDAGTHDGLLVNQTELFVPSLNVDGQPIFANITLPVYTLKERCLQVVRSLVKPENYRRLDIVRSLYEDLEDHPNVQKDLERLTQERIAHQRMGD
Target sequence in this assay (P48730 whole entry, looked up, the tested form may be a part, canonical isoform): as the sequence (P48730 whole entry, the tested form may be a part, canonical isoform) above

[6] = molecular target: T2, von Hippel-Lindau disease tumor suppressor/Casein kinase I isoform delta; experiment: PROTAC activity at VHL/Hibit-fused CK1 delta in human MV4-11 cells assessed as degradation of CK1-delta incubated for 6 hrs by Nano-Glo HiBiT assay relative to control; format: cell-based
Target sequence in this assay (P40337 whole entry, looked up, the tested form may be a part, canonical isoform): as the sequence (P40337 whole entry, looked up, the tested form may be a part, canonical isoform) above
Target sequence in this assay (P48730 whole entry, looked up, the tested form may be a part, canonical isoform): as the sequence (P48730 whole entry, the tested form may be a part, canonical isoform) above

[7] = molecular target: T3, von Hippel-Lindau disease tumor suppressor/Casein kinase I isoform alpha (Homo sapiens) (UniProt P48729+P40337); experiment: PROTAC activity at VHL/Hibit-fused CK1 alpha in human MV4-11 cells assessed as degradation of CK1-alpha incubated for 6 hrs by Nano-Glo HiBiT assay relative to control; format: cell-based
[8] = molecular target: T4, Casein kinase I isoform epsilon (Homo sapiens, UniProt P49674); experiment: Inhibition of CK1 epsilon (unknown origin)
[9] = Bioavailability in mouse; format: ADME, organism-based; conditions: in vivo
MV4-11 [10] = experiment: Cytotoxicity in human MV4-11 cells at <5 uM measured after 60 hrs by alamar blue assay; format: functional, cell-based
[11] = molecular target: Casein kinase I isoform delta (Homo sapiens) (UniProt P48730); experiment: Inhibition of CK1 delta in HEK293 cells at 5 to 10 uM measured after 6 hrs by Western blot analysis; format: cell-based; conditions: dose 5-10 µM
[12] = molecular target: T4, Casein kinase I isoform epsilon; experiment: Inhibition of CK1 epsilon in HEK293 cells at 5 to 10 uM measured after 6 hrs by Western blot analysis; format: cell-based; conditions: dose 5-10 µM
[13] = molecular target: T2, von Hippel-Lindau disease tumor suppressor/Casein kinase I isoform delta; experiment: PROTAC activity at VHL/Hibit-fused CK1 delta in human MV4-11 cells assessed as degradation of CK1-delta incubated for 6 hrs by Nano-Glo HiBiT assay; format: cell-based
[14] = molecular target: T3, von Hippel-Lindau disease tumor suppressor/Casein kinase I isoform alpha (Homo sapiens); experiment: PROTAC activity at VHL/CK1 alpha in HEK293 cells assessed as induction of degradation of CK1 alpha by measuring maximum efficacy at 5 to 10 uM measured after 6 hrs by Western blot analysis relative to control; format: cell-based; conditions: dose 5-10 µM
[15] = molecular target: T2, von Hippel-Lindau disease tumor suppressor/Casein kinase I isoform delta; experiment: PROTAC activity at VHL/CK1 delta in HEK293 cells assessed as induction of degradation of CK1 delta by measuring maximum efficacy at 5 to 10 uM measured after 6 hrs by Western blot analysis relative to control; format: cell-based; conditions: dose 5-10 µM
Target sequence in this assay (P40337 whole entry, looked up, the tested form may be a part, canonical isoform): as the sequence (P40337 whole entry, looked up, the tested form may be a part, canonical isoform) above
Target sequence in this assay (P48730 whole entry, looked up, the tested form may be a part, canonical isoform): as the sequence (P48730 whole entry, the tested form may be a part, canonical isoform) above

[16] = molecular target: T5, von Hippel-Lindau disease tumor suppressor/Casein kinase I isoform epsilon (Homo sapiens) (UniProt P49674+P40337); experiment: PROTAC activity at VHL/CK1 epsilon in HEK293 cells assessed as induction of degradation of CK1 epsilon by measuring maximum efficacy at 5 to 10 uM measured after 6 hrs by Western blot analysis relative to control; format: cell-based; conditions: dose 5-10 µM
MV4-11 [17] = experiment: Cytotoxicity in human MV4-11 cells at 10 uM measured after 72 hrs by alamar blue assay; format: functional, cell-based
[18] = molecular target: T2, von Hippel-Lindau disease tumor suppressor/Casein kinase I isoform delta; experiment: PROTAC activity at VHL/CK1 delta in HEK293 cells assessed as induction of degradation of CK1 delta at upto 20 uM pretreated with LGK974 followed by compound addition and measured after 6 hrs by Western blot analysis; format: cell-based
Target sequence in this assay (P40337 whole entry, looked up, the tested form may be a part, canonical isoform): as the sequence (P40337 whole entry, looked up, the tested form may be a part, canonical isoform) above
Target sequence in this assay (P48730 whole entry, looked up, the tested form may be a part, canonical isoform): as the sequence (P48730 whole entry, the tested form may be a part, canonical isoform) above

[19] = molecular target: T5, von Hippel-Lindau disease tumor suppressor/Casein kinase I isoform epsilon (Homo sapiens); experiment: PROTAC activity at VHL/CK1 epsilon in HEK293 cells assessed as induction of degradation of CK1 epsilon at upto 20 uM pretreated with LGK974 followed by compound addition and measured after 6 hrs by Western blot analysis; format: cell-based
[20] = molecular target: T5, von Hippel-Lindau disease tumor suppressor/Casein kinase I isoform epsilon (Homo sapiens); experiment: PROTAC activity at VHL/CK1 epsilon in HEK293 cells assessed as dephosphorylation of DVL3 at high concentration pretreated with LGK974 followed by compound addition and measured after 6 hrs by Western blot analysis; format: cell-based
[21] = molecular target: T2, von Hippel-Lindau disease tumor suppressor/Casein kinase I isoform delta; experiment: PROTAC activity at VHL/CK1 delta in HEK293 cells assessed as dephosphorylation of DVL3 at high concentration pretreated with LGK974 followed by compound addition and measured after 6 hrs by Western blot analysis; format: cell-based
Target sequence in this assay (P40337 whole entry, looked up, the tested form may be a part, canonical isoform): as the sequence (P40337 whole entry, looked up, the tested form may be a part, canonical isoform) above
Target sequence in this assay (P48730 whole entry, looked up, the tested form may be a part, canonical isoform): as the sequence (P48730 whole entry, the tested form may be a part, canonical isoform) above

[22] = molecular target: T2, von Hippel-Lindau disease tumor suppressor/Casein kinase I isoform delta; experiment: PROTAC activity at VHL/CK1 delta in HEK293 cells assessed as induction of degradation of CK1 delta by Western blot analysis; format: cell-based
[23] = molecular target: T5, von Hippel-Lindau disease tumor suppressor/Casein kinase I isoform epsilon (Homo sapiens); experiment: PROTAC activity at VHL/CK1 epsilon in HEK293 cells assessed as induction of degradation of CK1 epsilon at 0.01 to 30 uM by Western blot analysis; format: cell-based; conditions: dose 0.01-30 µM
[24] = molecular target: T3, von Hippel-Lindau disease tumor suppressor/Casein kinase I isoform alpha (Homo sapiens); experiment: PROTAC activity at VHL/CK1 alpha in HEK293 cells assessed as induction of degradation of CK1 alpha at >10 uM by Western blot analysis; format: cell-based

T5 sequence (P40337 whole entry, looked up, canonical isoform): as the sequence (P40337 whole entry, looked up, the tested form may be a part, canonical isoform) above
T5 sequence (P49674 whole entry, looked up, canonical isoform): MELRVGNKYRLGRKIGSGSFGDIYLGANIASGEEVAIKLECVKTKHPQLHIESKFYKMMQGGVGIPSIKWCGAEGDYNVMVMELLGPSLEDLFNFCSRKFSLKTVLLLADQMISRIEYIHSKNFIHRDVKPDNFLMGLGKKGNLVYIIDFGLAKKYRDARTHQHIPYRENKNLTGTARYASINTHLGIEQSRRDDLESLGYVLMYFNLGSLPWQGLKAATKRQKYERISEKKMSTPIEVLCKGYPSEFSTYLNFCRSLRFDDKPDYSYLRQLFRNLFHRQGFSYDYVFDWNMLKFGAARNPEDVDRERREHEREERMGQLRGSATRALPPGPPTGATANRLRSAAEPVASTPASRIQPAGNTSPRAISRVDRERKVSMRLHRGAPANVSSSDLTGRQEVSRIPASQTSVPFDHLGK
T3 sequence (P40337 whole entry, looked up, the tested form may be a part, canonical isoform): as the sequence (P40337 whole entry, looked up, the tested form may be a part, canonical isoform) above
T3 sequence (P48729 whole entry, looked up, the tested form may be a part, canonical isoform): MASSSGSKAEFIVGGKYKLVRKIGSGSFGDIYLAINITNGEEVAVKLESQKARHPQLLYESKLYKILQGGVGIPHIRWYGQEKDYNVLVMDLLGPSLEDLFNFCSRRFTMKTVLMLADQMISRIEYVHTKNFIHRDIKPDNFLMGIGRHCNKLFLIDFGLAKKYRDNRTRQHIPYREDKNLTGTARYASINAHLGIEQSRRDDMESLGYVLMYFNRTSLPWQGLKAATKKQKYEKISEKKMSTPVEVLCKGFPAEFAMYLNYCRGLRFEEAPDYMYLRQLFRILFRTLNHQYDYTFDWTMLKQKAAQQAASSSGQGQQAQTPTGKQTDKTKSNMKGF
Cereblon/Casein kinase I alpha (Homo sapiens), sequence (P48729 2-337 limits assumed): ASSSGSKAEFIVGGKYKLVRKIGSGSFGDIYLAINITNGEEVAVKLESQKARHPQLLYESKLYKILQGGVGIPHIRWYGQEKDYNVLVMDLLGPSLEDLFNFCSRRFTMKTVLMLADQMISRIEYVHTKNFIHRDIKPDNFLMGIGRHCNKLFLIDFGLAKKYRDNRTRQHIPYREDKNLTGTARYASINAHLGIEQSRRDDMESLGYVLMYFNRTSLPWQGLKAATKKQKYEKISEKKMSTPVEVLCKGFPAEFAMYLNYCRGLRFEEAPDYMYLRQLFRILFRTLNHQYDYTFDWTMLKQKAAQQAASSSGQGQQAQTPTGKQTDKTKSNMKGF
Cereblon/Casein kinase I alpha (Homo sapiens), sequence (Q96SW2 whole entry partner, the tested form may be a part, canonical isoform): as the sequence (Q96SW2 whole entry, the tested form may be a part, canonical isoform) above

SMILES	EC50 [1] [nM]	Emax [2] [%]	Emax [3] [%]	Emax [5] [%]	Emax [6] [%]	Emax [7] [%]	other results
O=C(CCOCCOCCOCCN1CCC(F)(Cn2cnc(-c3ccc(F)cn3)c2-c2ccnc3[nH]ccc23)CC1)NCCNc1cccc2c1C(=O)N(C1CCC(=O)NC1=O)C2=O (stereo unspecified)	7.7	36	20.2				Activity [4]: Active
O=C(CCOCCOCCN1CCC(F)(Cn2cnc(-c3ccc(F)cn3)c2-c2ccnc3[nH]ccc23)CC1)NCCNc1cccc2c1C(=O)N(C1CCC(=O)NC1=O)C2=O (stereo unspecified)	9.3	36.4	25				Activity [4]: Active
O=C(CCOCCOCCOCCOCCN1CCC(F)(Cn2cnc(-c3ccc(F)cn3)c2-c2ccnc3[nH]ccc23)CC1)NCCNc1cccc2c1C(=O)N(C1CCC(=O)NC1=O)C2=O (stereo unspecified)	11.2	40.2	11.3				Activity [4]: Active
O=C(COc1cccc2c1C(=O)N(C1CCC(=O)NC1=O)C2=O)NCc1ccc(CC(=O)N2CCC(F)(Cn3cnc(-c4ccc(F)cn4)c3-c3ccnc4[nH]ccc34)CC2)cc1 (stereo unspecified)	4.6	14.8	19.7				
O=C(COc1cccc2c1C(=O)N(C1CCC(=O)NC1=O)C2=O)NCCOCCOCCOCCC(=O)N1CCC(F)(Cn2cnc(-c3ccc(F)cn3)c2-c2ccnc3[nH]ccc23)CC1 (stereo unspecified)	16	< 10	12.6				
Cc1ncsc1-c1ccc(CNC(=O)[C@@H]2C[C@@H](O)CN2C(=O)[C@@H](NC(=O)CCOCCOCCOCCOCCN2CCC(F)(Cn3cnc(-c4ccc(F)cn4)c3-c3ccnc4[nH]ccc34)CC2)C(C)(C)C)cc1				2.8	< 10	< 10	
Cc1ncsc1-c1ccc(CNC(=O)[C@@H]2C[C@@H](O)CN2C(=O)[C@@H](NC(=O)CC2CN(C(=O)CN3CCC(F)(Cn4cnc(-c5ccc(F)cn5)c4-c4ccnc5[nH]ccc45)CC3)C2)C(C)(C)C)cc1				2.4	21.7	< 10	
O=C1CCC(N2C(=O)c3cccc(NCCOCCOCCOCCC(=O)N4CCC(F)(Cn5cnc(-c6ccc(F)cn6)c5-c5ccnc6[nH]ccc56)CC4)c3C2=O)C(=O)N1 (stereo unspecified)	467	34.4	16.1				
CN1CCC(F)(Cn2cnc(-c3ccc(F)cn3)c2-c2ccnc3[nH]ccc23)CC1							IC50 [8]: 27.7 nM; bioavailability [9]: 0.57%; Activity (MV4-11 [10]): Active
O=C1CCC(N2C(=O)c3cccc(NCCCCCC(=O)N4CCC(F)(Cn5cnc(-c6ccc(F)cn6)c5-c5ccnc6[nH]ccc56)CC4)c3C2=O)C(=O)N1 (stereo unspecified)	4.3	35	< 10				Activity [4]: Active
O=C(COc1cccc2c1C(=O)N(C1CCC(=O)NC1=O)C2=O)NCCCCCC(=O)N1CCC(F)(Cn2cnc(-c3ccc(F)cn3)c2-c2ccnc3[nH]ccc23)CC1 (stereo unspecified)	9.3	18.2	< 10				
Cc1ncsc1-c1ccc(CNC(=O)[C@@H]2C[C@@H](O)CN2C(=O)[C@@H](NC(=O)CC2CCN(C(=O)CN3CCC(F)(Cn4cnc(-c5ccc(F)cn5)c4-c4ccnc5[nH]ccc45)CC3)CC2)C(C)(C)C)cc1				2	29.1	< 10	
Cc1ncsc1-c1ccc(CNC(=O)[C@@H]2C[C@@H](O)CN2C(=O)[C@@H](NC(=O)CCOCCOCCOCCN2CCC(F)(Cn3cnc(-c4ccc(F)cn4)c3-c3ccnc4[nH]ccc34)CC2)C(C)(C)C)cc1				4.3	35	35.9	Activity (MV4-11 [10]): Active
O=C1CCC(N2C(=O)c3cccc(NCc4ccc(CC(=O)N5CCC(F)(Cn6cnc(-c7ccc(F)cn7)c6-c6ccnc7[nH]ccc67)CC5)cc4)c3C2=O)C(=O)N1 (stereo unspecified)	9.2	14.4	< 10				
O=C1CCC(N2C(=O)c3cccc(OCCCCCCN4CCC(F)(Cn5cnc(-c6ccc(F)cn6)c5-c5ccnc6[nH]ccc56)CC4)c3C2=O)C(=O)N1 (stereo unspecified)	1.5	15					inhibition [11]: Active; inhibition [12]: Active
Cc1ncsc1-c1ccc(CNC(=O)[C@@H]2C[C@@H](O)CN2C(=O)[C@@H](NC(=O)CC2CN(C(=O)CCOCCOCCN3CCC(F)(Cn4cnc(-c5ccc(F)cn5)c4-c4ccnc5[nH]ccc45)CC3)C2)C(C)(C)C)cc1				6.3	< 10	< 10	
Cc1ncsc1-c1ccc(CNC(=O)[C@@H]2C[C@@H](O)CN2C(=O)[C@@H](NC(=O)CC2CN(C(=O)CCOCCOCCOCCN3CCC(F)(Cn4cnc(-c5ccc(F)cn5)c4-c4ccnc5[nH]ccc45)CC3)C2)C(C)(C)C)cc1				6.4	< 10	< 10	
Cc1ncsc1-c1ccc(CNC(=O)[C@@H]2C[C@@H](O)CN2C(=O)[C@@H](NC(=O)CCOCCOCCN2CCC(F)(Cn3cnc(-c4ccc(F)cn4)c3-c3ccnc4[nH]ccc34)CC2)C(C)(C)C)cc1				1.8	50.8	17.3	DC50 [13]: 9270 nM; Emax [14]: > 50%; Emax [15]: > 50%; Emax [16]: > 50%
Cc1ncsc1-c1ccc(CNC(=O)[C@@H]2C[C@@H](O)CN2C(=O)[C@@H](NC(=O)Cc2ccc(CNC(=O)CN3CCC(F)(Cn4cnc(-c5ccc(F)cn5)c4-c4ccnc5[nH]ccc45)CC3)cc2)C(C)(C)C)cc1				0.5	19.1	< 10	
Cc1ncsc1-c1ccc(CNC(=O)[C@@H]2C[C@@H](O)CN2C(=O)[C@@H](NC(=O)CC2CCN(C(=O)CCOCCOCCOCCN3CCC(F)(Cn4cnc(-c5ccc(F)cn5)c4-c4ccnc5[nH]ccc45)CC3)CC2)C(C)(C)C)cc1				3.2	< 10	< 10	
Cc1ncsc1-c1ccc(CNC(=O)[C@@H]2C[C@H](O)CN2C(=O)[C@@H](NC(=O)CCCCCCC(=O)N2CCC(F)(Cn3cnc(-c4ccc(F)cn4)c3-c3ccnc4[nH]ccc34)CC2)C(C)(C)C)cc1				2.4	< 10	< 10	Activity (MV4-11 [17]): Active; Compound Showed Milder Cytotoxic Effect; Activity [18]: inactive; Activity [19]: inactive; Activity [20]: Active; Activity [21]: Active; DC50 [22]: 200 nM; Activity [23]: Weak_effect; Activity [24]: Weak_effect
